Reference: the NIST ThermoML archive (doi:10.1016/j.jct.2006.05.006)

Assay: xn = mol fraction of the nth substance listed
Conditions: 101 kPa, Liquid

CN1CCCC1=O [N-methylpyrrolidone] + Cc1ccccc1
Conditions	mass density [kg/m3]
293.15 K, x2 = 0	1032.66
293.15 K, x2 = 0.0541	1024.34
293.15 K, x2 = 0.1254	1013.29
293.15 K, x2 = 0.1845	1004.06
293.15 K, x2 = 0.2412	995.15
293.15 K, x2 = 0.3154	983.34
293.15 K, x2 = 0.3845	972.23
293.15 K, x2 = 0.4521	961.22
293.15 K, x2 = 0.5214	949.8
293.15 K, x2 = 0.5865	938.94
293.15 K, x2 = 0.6458	928.94
293.15 K, x2 = 0.7124	917.57
293.15 K, x2 = 0.7784	906.16
293.15 K, x2 = 0.8425	894.94
293.15 K, x2 = 0.9014	884.51
293.15 K, x2 = 0.9784	870.71
303.15 K, x2 = 0	1023.42
303.15 K, x2 = 0.0482	1016
303.15 K, x2 = 0.1235	1004.32
303.15 K, x2 = 0.1856	994.6
303.15 K, x2 = 0.2436	985.45
303.15 K, x2 = 0.3145	974.17
303.15 K, x2 = 0.3854	962.74
303.15 K, x2 = 0.4521	951.88
303.15 K, x2 = 0.5236	940.09
303.15 K, x2 = 0.5852	929.81
303.15 K, x2 = 0.6451	919.71
303.15 K, x2 = 0.7145	907.86
303.15 K, x2 = 0.7854	895.61
303.15 K, x2 = 0.8541	883.57
303.15 K, x2 = 0.9015	875.19
303.15 K, x2 = 0.9789	861.34
313.15 K, x2 = 0	1014.27
313.15 K, x2 = 0.0522	1006.21
313.15 K, x2 = 0.1257	994.77
313.15 K, x2 = 0.1901	984.67
313.15 K, x2 = 0.2401	976.76
313.15 K, x2 = 0.321	963.85
313.15 K, x2 = 0.3952	951.86
313.15 K, x2 = 0.4654	940.38
313.15 K, x2 = 0.5321	929.35
313.15 K, x2 = 0.5984	918.25
313.15 K, x2 = 0.6541	908.84
313.15 K, x2 = 0.7248	896.74
313.15 K, x2 = 0.7895	885.54
313.15 K, x2 = 0.8412	876.51
313.15 K, x2 = 0.9215	862.31
313.15 K, x2 = 0.9759	852.57
323.15 K, x2 = 0	1005.62
323.15 K, x2 = 0.0487	998.04
323.15 K, x2 = 0.1147	987.71
323.15 K, x2 = 0.1789	977.59
323.15 K, x2 = 0.2365	968.43
323.15 K, x2 = 0.2987	958.46
323.15 K, x2 = 0.3695	947
323.15 K, x2 = 0.4351	936.27
323.15 K, x2 = 0.4954	926.31
323.15 K, x2 = 0.5654	914.62
323.15 K, x2 = 0.6215	905.15
323.15 K, x2 = 0.6945	892.69
323.15 K, x2 = 0.7658	880.39
323.15 K, x2 = 0.8321	868.8
323.15 K, x2 = 0.9201	853.23
323.15 K, x2 = 0.9758	843.26
333.15 K, x2 = 0	996.28
333.15 K, x2 = 0.0478	988.83
333.15 K, x2 = 0.1102	979.04
333.15 K, x2 = 0.1874	966.85
333.15 K, x2 = 0.2451	957.65
333.15 K, x2 = 0.3147	946.45
333.15 K, x2 = 0.3984	932.84
333.15 K, x2 = 0.4682	921.37
333.15 K, x2 = 0.5321	910.74
333.15 K, x2 = 0.5984	899.6
333.15 K, x2 = 0.6541	890.15
333.15 K, x2 = 0.7241	878.16
333.15 K, x2 = 0.7985	865.26
333.15 K, x2 = 0.8541	855.52
333.15 K, x2 = 0.921	843.69
333.15 K, x2 = 0.98	833.15
343.15 K, x2 = 0	987.39
343.15 K, x2 = 0.0512	979.36
343.15 K, x2 = 0.1245	967.81
343.15 K, x2 = 0.1895	957.47
343.15 K, x2 = 0.246	948.41
343.15 K, x2 = 0.3124	937.69
343.15 K, x2 = 0.3841	926
343.15 K, x2 = 0.4514	914.91
343.15 K, x2 = 0.5214	903.26
343.15 K, x2 = 0.5954	890.81
343.15 K, x2 = 0.6598	879.85
343.15 K, x2 = 0.7214	869.28
343.15 K, x2 = 0.7954	856.43
343.15 K, x2 = 0.8596	845.17
343.15 K, x2 = 0.9214	834.23
343.15 K, x2 = 0.9788	823.98
353.15 K, x2 = 0	978.62
353.15 K, x2 = 0.0821	965.64
353.15 K, x2 = 0.1337	957.42
353.15 K, x2 = 0.1993	946.92
353.15 K, x2 = 0.2646	936.37
353.15 K, x2 = 0.3306	925.62
353.15 K, x2 = 0.3965	914.8
353.15 K, x2 = 0.4514	905.7
353.15 K, x2 = 0.5214	894
353.15 K, x2 = 0.5984	880.99
353.15 K, x2 = 0.6514	871.96
353.15 K, x2 = 0.7214	859.91
353.15 K, x2 = 0.7984	846.52
353.15 K, x2 = 0.858	836.05
353.15 K, x2 = 0.9265	823.91
353.15 K, x2 = 0.9799	814.38
